# Experimental data published in patent US20020006420A1, “USE OF A 2-AMINO-ALKANE POLYOL AS AGENT FOR TREATING SKIN AGEING SIGNS” (priority 1997, published 2002).
# Columns and labels:
# Format in all cases: cell-based
# [1] = test system: HaCat cells; assay: Effect on the cell cycle (BrdU incorporation, S phase); details: 50 nM
# Procedure: (§1) HaCat cells are cultured as above.
# (§2) They are then inoculated at the density of 20,000 cells per well into the 24 wells of multiwell-type plates (Costar, France).
# 24 hours after inoculation, the cells are brought into contact with various compounds tested in a KBM medium (company Clonetics) containing insulin at 5 μg/ml and hydrocortisone at 0.5 μg/ml, and 5-bromo-2′-deoxyuridine (BrdU) at 1 μM.
# […] This is carried out with the aid of a “BrdU fast” kit sold by the company Boehringer and according to the supplier's instructions.
# Compounds A and B of the preceding example were tested at the concentration of 50 nM.
# The results, expressed as a percentage, represent the increase in the number of cells which entered the S phase relative to the control, that is to say relative to a culture carried out under the same conditions in the absence of alkanediol compounds.
# [2] = test system: HaCat cells; assay: Proliferative effect on keratinocytes in culture (cell counting, Coulter Counter); details: for increase in the number of cells relative to the control: counting 5 days after addition
# Procedure: HaCat cells (Boukamp et al., J. Cell Biol. Vol. 106, March 1988, 761-771) are cultured in DMEM medium (company Gibco) containing amino acids (mixture of nonessential amino acids) at the concentration of 0.1 mM, penicillin and streptomycin at the respective concentrations of 50 International Units per milliliter and 50 μg/ml, glutamine at the concentration of 2 mM, sodium pyruvate at the concentration of 1 mM and foetal calf serum at 10%. These cells were inoculated at the density of 10,000 cells per well into the 24 wells of multiwell-type plates (Costar, France).
# 24 hours after inoculation, the cells are brought into contact with various compounds tested in a KBM medium (company Clonetics) containing 0.15 mM of calcium ion, insulin at 5 μg/ml, hydrocortisone at 0.5 μg/ml and lipid-free bovine serum albumin at 1 μg/ml.
# Cell counting is carried out 5 days after the addition of the various ceramides using a cell counter of the Coulter Counter type.
# The various compounds are tested at 0.5 nM, 5 nM, 50 nM and 500 nM.
# The results, expressed as a percentage, represent the increase in the number of cells relative to the control, that is to say relative to a culture carried out under the same conditions in the absence of sphinganine.
# [3] = test system: HaCat cells; assay: Effect on cell viability (mitochondrial respiration, XTT kit); details: 50 nM
# Procedure: as §1, §2
# (§3) 24 hours after inoculation, the cells are brought into contact with various compounds tested in a KBM medium (company Clonetics) containing insulin at 5 μg/ml and hydrocortisone at 0.5 μg/ml.
# (§4) The cell viability is evaluated 48 hours later by the measurement of mitochondrial respiration. This is carried out with the aid of an XTT kit sold by the company Boehringer and according to the supplier's instructions.
# Compounds A and B of the preceding example were tested at the concentration of 50 nM, as well as a derivative based on sphingenine: N-palmitoylsphingenine from Sigma (C16H).
# The results, expressed as a percentage, represent the increase in the number of cells relative to the control, that is to say relative to a culture carried out under the same conditions in the absence of alkanediol compounds.
# [4] = test system: HaCat cells; assay: Cell viability in the presence of N-acetylsphingenine (XTT kit); details: 10 μM
# Procedure: HaCat cells are cultured as in Example 2.
# as §3
# The cells are cultured in the presence of the 2-amino-1,3-octadecanediol to be tested until the cell viability is evaluated.
# The N-acteylsphingenine at the concentration of 10 μM is added to the culture medium over 2 hours at the beginning of the experiment.
# as §4
# The experiment was carried out with the following compounds at the concentration of 50 nM:
# in comparison with the culture medium without alkanediol and without N-acetylsphingenine (A), and with a medium containing only N-acetylsphingenine (B).
# The results, expressed as a percentage, represent the number of cells relative to the control (A), that is to say relative to a culture carried out under the same conditions in the absence of alkanediol compounds and of N-acetysphingenine.
Compound,effect on number of keratinocytes which entered the S phase (in words) [1],increase in the number of cells which entered the S phase relative to the control ([1]; 72 hours),increase in the number of cells which entered the S phase relative to the control ([1]; 96 hours),proliferative activity on keratinocytes in culture (in words) [2],increase in the number of cells relative to the control ([2]; 0.5 nM),increase in the number of cells relative to the control ([2]; 5 nM),increase in the number of cells relative to the control ([2]; 50 nM),increase in the number of cells relative to the control ([2]; 500 nM),effect on viability of keratinocytes in culture (in words) [3],cell viability: increase in the number of cells relative to the control ([3]; XTT 48 hours later),effect of N-acetylsphingenine on cell viability (in words) [4]
"CCCCCCCCCCCCCCCC(O)C(N)CO (single isomer, unassigned) [A, 2-amino-1,3-octadecanediol]",increase the number of keratinocytes which entered the S phase,36%,41%,proliferative activity,7%,15%,17%,30%,increase the viability,+17%,
"CCCCCCCCCCCCC/C=C/[C@@H](O)[C@H](CO)NC(=O)CCCCCCCCCCCCCCC [Compound C16H, N-palmitoylsphingenine, reference compound]",,,,,,,,,cytotoxic effect,,
N-acetylsphingenine [B],,,,,,,,,,,decrease in cell viability
